Measured values taken from US7101872B2, “Farnesyl dibenzodiazepinone, and processes for its production” (Ecopia BioSciences, Inc., priority 2003, dated 2006).
Converted amounts (≈) assume the structure as drawn.

How the values were obtained:
GL26 = test: Antiproliferative study, glioma cell lines (MTT); assay type: cell-based, Human; details: Mus musculus, GL26, Glioblastoma, 96 hrs
Procedure: Cells were passaged once a week. Prior to use the cells were detached from the culture flask by treating with trypsin for five to ten minutes. The cells were counted with a Neubauer glass slide and viability assessed by 0.25% trypan blue exclusion. Only flasks with >95% cell viability, were used in the study. Cell lines amplification and plating: Cells, 5×10^3 cells per well in 100 μL drug-free medium supplemented with 10% serum, were plated in 96-well flat bottom microtiter plates and incubated at 37° C. for 48 hrs before treatment. Evaluation of inhibitory activity on cell proliferation: Cells (in triplicate wells) were incubated 96 hrs with medium containing different concentrations of ECO-04601, starting at 5.0 μg/ml (10 μM). The compound was used in a solution of 1% DMSO in D-MEM or RPMI media (or other equivalent media). […] The optical density was measured before incubation (time 0) and following 96 hrs of incubation with test compound in order to measure the growth rate of each cell line.
At the end of the cell treatment, cell culture media was replaced with 150 μl of fresh medium containing 10 mM of 4-(2-hydroxyethyl)-1-piperazineethanesulfonic acid buffer, pH 7.4. […] The optical density was read in each well using a single wavelength spectrophotometer plate reader at 570 nm. […]

[1] = test system: C6 glioblastoma cell-bearing mice; test: In vivo glioma model, treatment from day 10 after inoculation; parameters: species or system Mus musculus nude mice; details: 20–30 mg/kg; versus vehicle-treated mice (FIG. 11)
Procedure: The aim of this study was to test whether ECO-04601 administered by i.p. route prevents or delays tumor growth in C6 glioblastoma cell-bearing mice, and to determine an effective dosage regimen.
Animal experiments were performed according to ethical guidelines of animal experimentation (Charte du comité d'éthique du CNRS, juillet 2003) and the English guidelines for the welfare of animals in experimental neoplasia (WORKMAN, P., […], P., BALKWILL, F., et al. (1998). United Kingdom Coordinating Committee on Cancer Research (UKCCCR) Guidelines for the welfare of animals in experimental neoplasia (Second Edition, July 1997; British Journal of Cancer 77:1–10). Any dead or apparently sick mice were promptly removed and replaced with healthy mice. Sick mice were euthanized upon removal from the cage. Animals were maintained in rooms under controlled conditions of temperature (23±2° C.), humidity (45±5%), photoperiodicity (12 hrs light/12 hrs dark) and air exchange. […] The cells were counted in a hemocytometer and their viability assessed by 0.25% trypan blue exclusion. […]
In a second series of experiments, treatment started at day 10 following inoculation of C6 cells when tumors became palpable (around 100 to 200 mm^3). […] Tumor volume was measured every second day until the end of the treatment using callipers. […]

[2] = test system: Micrococcus luteus ATCC 9341; test: MIC broth microdilution; assay type: cell-based; details: ATCC9341, 35° C., 24 hrs
Procedure: (§1) The MIC determination of ECO-04601 against bacteria strains (Bacillus subtilis—ATCC 23857; Micrococcus luteus—ATCC 9341) was performed using broth microdilution assay (Methods for Dilution Antimicrobial Susceptibility Tests for Bacteria That Grow Aerobically; Approved Standard-Fifth Edition. NCCLS document M7-A5 (ISBN 1-56238-394-9). NCCLS, 940 West Valley Road, Suite 1400, Wayne, Pa. 19087-1898 USA.). Test compound preparation: […] The first dilution (3.2 mg/ml) was prepared by resuspending 0.5 mg of each test article in 156.25 μl of DMSO. […] Assay plates were incubated at 35° C. for 24 hrs.

[3] = test system: Bacillus subtilis ATCC 23857; test: MIC broth microdilution; assay type: cell-based; details: ATCC23857, 35° C., 24 hrs
Procedure: as §1

SMILES: CC(C)=CCC/C(C)=C/CC/C(C)=C/CN1C(=O)c2cccc(O)c2Nc2c(O)cc(O)cc21 [ECO-04601, 10-farnesyl-4,6,8-trihydroxy-dibenzodiazepin-11-one]
- IC50 (GL26): 8.93 ± 1.1 µM
- Histological analysis of tumor sections [1]: cell density was decreased and the nuclei of remaining tumor cells appeared larger and pycnotic
- MIC [2]: 6.25 µg/mL (≈ 13.5 µM)
- MIC [3]: 12.5 µg/mL (≈ 27 µM)
